Laboratory results published in US11135234B2, “Effective aminoglycoside antibiotic for multidrug-resistant bacteria” (MICROBIAL CHEMISTRY RESEARCH FOUNDATION, priority 2015, dated 2021).
In brackets after ≈: the same amount, converted by molar mass.

How the values were obtained:
[1] = tested on: K. pneumoniae ATCC BAA-1705; test: MIC, agar plate dilution method, K. pneumoniae ATCC BAA-1705; assay type: cell-based, Klebsiella pneumoniae; details: for MIC: Klebsiella pneumoniae, ATCCBAA1705, K. pneumoniae ATCC BAA-1705, KPC-producing strain, read-out: minimal inhibitory concentration (MIC); for minimal inhibitory concentration (MIC): K. pneumoniae ATCC BAA-1705, KPC-producing strain
In short: (§1)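 MIC values, expressed in μg/mL, come from an agar plate dilution assay run as the Japan Society of Chemotherapy describes.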

S. aureus MF490 = test: MIC, agar plate dilution method, S. aureus MF490; assay type: cell-based, Staphylococcus aureus; details: for MIC: Staphylococcus aureus, MRSA, read-out: minimal inhibitory concentration (MIC); for minimal inhibitory concentration (MIC): S. aureus MF490, MRSA
In short: as §1

[2] = tested on: A. baumannii ATCC BAA-1710; test: MIC, agar plate dilution method, A. baumannii ATCC BAA-1710; assay type: cell-based, Acinetobacter baumannii; details: for MIC: Acinetobacter baumannii, ATCCBAA1710, A. baumannii ATCC BAA-1710, MDRA, read-out: minimal inhibitory concentration (MIC); for minimal inhibitory concentration (MIC): A. baumannii ATCC BAA-1710, MDRA
In short: as §1

P. aeruginosa PAO1/GN315 = test: MIC, agar plate dilution method, P. aeruginosa PAO1/GN315; assay type: cell-based, Pseudomonas aeruginosa; details: for MIC: Pseudomonas aeruginosa, read-out: minimal inhibitory concentration (MIC), P. aeruginosa PAO1/GN315, AMK-resistant; for minimal inhibitory concentration (MIC): P. aeruginosa PAO1/GN315, AMK-resistant
In short: as §1

P. aeruginosa PAO1 = test: MIC, agar plate dilution method, P. aeruginosa PAO1; assay type: cell-based, Pseudomonas aeruginosa; details: for MIC: Pseudomonas aeruginosa, PAO1, P. aeruginosa PAO1, Sensitive bacterium, read-out: minimal inhibitory concentration (MIC); for minimal inhibitory concentration (MIC): P. aeruginosa PAO1, Sensitive bacterium
In short: as §1

S. aureus RN4220 = test: MIC, agar plate dilution method, S. aureus RN4220; assay type: cell-based, Staphylococcus aureus; details: for MIC: Staphylococcus aureus, RN4220, S. aureus RN4220, Sensitive bacterium, read-out: minimal inhibitory concentration (MIC); for minimal inhibitory concentration (MIC): S. aureus RN4220, Sensitive bacterium
In short: as §1

E. coli JM109/pMW218 = test: MIC, agar plate dilution method, E. coli JM109/pMW218; assay type: cell-based, Escherichia coli; details: for MIC: Escherichia coli, JM109/PMW218, E. coli JM109/pMW218, Sensitive bacterium, read-out: minimal inhibitory concentration (MIC); for minimal inhibitory concentration (MIC): E. coli JM109/pMW218, Sensitive bacterium
In short: as §1

P. aeruginosa MSC01035 = test: MIC, agar plate dilution method, P. aeruginosa MSC01035; assay type: cell-based, Pseudomonas aeruginosa; details: P. aeruginosa MSC01035, ABK-resistant; for MIC: Pseudomonas aeruginosa, read-out: minimal inhibitory concentration (MIC)
In short: as §1

E. faecium ATCC19434 = test: MIC, agar plate dilution method, E. faecium ATCC19434; assay type: cell-based, Enterococcus faecium; details: for MIC: Enterococcus faecium, ATCC19434, E. faecium ATCC19434, read-out: minimal inhibitory concentration (MIC); for minimal inhibitory concentration (MIC): E. faecium ATCC19434
In short: as §1

[3] = tested on: K. pneumoniae ATCC BAA-2146; test: MIC, agar plate dilution method, K. pneumoniae ATCC BAA-2146; assay type: cell-based, Klebsiella pneumoniae; details: for MIC: Klebsiella pneumoniae, ATCCBAA2146, K. pneumoniae ATCC BAA-2146, NDM-producing strain, read-out: minimal inhibitory concentration (MIC); for minimal inhibitory concentration (MIC): K. pneumoniae ATCC BAA-2146, NDM-producing strain
In short: as §1

S. marcescens TH-0447 = test: MIC, agar plate dilution method, S. marcescens TH-0447; assay type: cell-based, Serratia marcescens; details: for MIC: Serratia marcescens, TH0447, S. marcescens TH-0447, AMK-resistant, read-out: minimal inhibitory concentration (MIC); for minimal inhibitory concentration (MIC): S. marcescens TH-0447, AMK-resistant
In short: as §1

S. aureus RN4220/pMS520 = test: MIC, agar plate dilution method, S. aureus RN4220/pMS520; assay type: cell-based, Staphylococcus aureus; details: for MIC: Staphylococcus aureus, MRSA, read-out: minimal inhibitory concentration (MIC), S. aureus RN4220/pMS520, MRSA; for minimal inhibitory concentration (MIC): S. aureus RN4220/pMS520, MRSA
In short: as §1

S. marcescens GN6944 = test: MIC, agar plate dilution method, S. marcescens GN6944; assay type: cell-based, Serratia marcescens; details: S. marcescens GN6944, GM-resistant; for MIC: Serratia marcescens, read-out: minimal inhibitory concentration (MIC)
In short: as §1

P. aeruginosa MSC17707 = test: MIC, agar plate dilution method, P. aeruginosa MSC17707; assay type: cell-based, Pseudomonas aeruginosa; details: for MIC: Pseudomonas aeruginosa, MSC17707, P. aeruginosa MSC17707, AMK-resistant, read-out: minimal inhibitory concentration (MIC); for minimal inhibitory concentration (MIC): P. aeruginosa MSC17707, AMK-resistant
In short: as §1

Compound | MIC [1] [µg/mL] | MIC (S. aureus MF490) [µg/mL] | MIC [2] [µg/mL] | MIC (P. aeruginosa PAO1/GN315) [µg/mL] | MIC (P. aeruginosa PAO1) [µg/mL] | MIC (S. aureus RN4220) [µg/mL] | MIC (E. coli JM109/pMW218) [µg/mL] | MIC (P. aeruginosa MSC01035) [µg/mL] | MIC (E. faecium ATCC19434) [µg/mL] | MIC [3] [µg/mL] | MIC (S. marcescens TH-0447) [µg/mL] | MIC (S. aureus RN4220/pMS520) [µg/mL] | MIC (S. marcescens GN6944) [µg/mL] | MIC (P. aeruginosa MSC17707) [µg/mL] | minimal inhibitory concentration (MIC) [1] [µg/mL] | minimal inhibitory concentration (MIC) (S. aureus MF490) [µg/mL] | minimal inhibitory concentration (MIC) [2] [µg/mL] | minimal inhibitory concentration (MIC) (P. aeruginosa PAO1/GN315) [µg/mL] | minimal inhibitory concentration (MIC) (P. aeruginosa PAO1) [µg/mL] | minimal inhibitory concentration (MIC) (S. aureus RN4220) [µg/mL] | other results
CNC1C(O[C@H]2OC(CO)[C@@H](N[C@H]3CC[C@@H](N)CC3)[C@H](O)C2O)O[C@H]2CC(N)[C@@H](O[C@@H]3C(N)C[C@@H](N)C(O)[C@H]3O)OC2C1O (stereo partly drawn) [Compound A4-f, 4″-N-(cis-1,4-4-aminocyclohexyl)apramycin] | 2 (≈ 3.14 µM) | 8 (≈ 12.6 µM) | 32 (≈ 50.3 µM) | 16 (≈ 25.1 µM) | 16 (≈ 25.1 µM) | 4 (≈ 6.28 µM) | 1 (≈ 1.57 µM) | 16 (≈ 25.1 µM) | 32 (≈ 50.3 µM) | 1 (≈ 1.57 µM) | 16 (≈ 25.1 µM) | 4 (≈ 6.28 µM) | 8 (≈ 12.6 µM) | 16 (≈ 25.1 µM) | – | – | – | – | – | – | –
CNC1C(O[C@H]2OC(CO)[C@@H](NC(CN)CN)[C@H](O)C2O)O[C@H]2CC(N)[C@@H](O[C@H]3CC[C@H](N)CC3N)OC2C1O (stereo partly drawn) [Compound T2-d, 4″-N-(1,3-diaminopropan-2-yl)-5,6-dideoxyapramycin] | 2 (≈ 3.45 µM) | 4 (≈ 6.9 µM) | 8 (≈ 13.8 µM) | 4 (≈ 6.9 µM) | 4 (≈ 6.9 µM) | 2 (≈ 3.45 µM) | 1 (≈ 1.73 µM) | 8 (≈ 13.8 µM) | 4 (≈ 6.9 µM) | 2 (≈ 3.45 µM) | 8 (≈ 13.8 µM) | 1 (≈ 1.73 µM) | 8 (≈ 13.8 µM) | 8 (≈ 13.8 µM) | – | – | – | – | – | – | –
CNC1C(OC2OC(CO)C(NCCNC(=N)N)C(O)C2O)OC2CC(N)C(OC3C(N)CC(N)C(O)C3O)OC2C1O (stereo not drawn) [Compound A4-k, 4″-N-guanidinoethylapramycin] | – | – | – | – | – | – | – | – | – | – | – | – | – | – | 1 (≈ 1.6 µM) | 16 (≈ 25.6 µM) | 8 (≈ 12.8 µM) | 8 (≈ 12.8 µM) | 8 (≈ 12.8 µM) | 2 (≈ 3.2 µM) | minimal inhibitory concentration (MIC) (E. coli JM109/pMW218): 0.5 µg/mL (≈ 0.8 µM); minimal inhibitory concentration (MIC) (P. aeruginosa MSC01035): 16 µg/mL (≈ 25.6 µM); minimal inhibitory concentration (MIC) (E. faecium ATCC19434): 16 µg/mL (≈ 25.6 µM); minimal inhibitory concentration (MIC) [3]: 1 µg/mL (≈ 1.6 µM); minimal inhibitory concentration (MIC) (S. marcescens TH-0447): 8 µg/mL (≈ 12.8 µM); minimal inhibitory concentration (MIC) (S. aureus RN4220/pMS520): 2 µg/mL (≈ 3.2 µM); minimal inhibitory concentration (MIC) (S. marcescens GN6944): 4 µg/mL (≈ 6.4 µM); minimal inhibitory concentration (MIC) (P. aeruginosa MSC17707): 16 µg/mL (≈ 25.6 µM)
CNC1C(O[C@H]2OC(CO)[C@@H](N(CCN)CCN)[C@H](O)C2O)O[C@H]2CC(N)[C@@H](O[C@@H]3C(N)C[C@@H](N)C(O)[C@H]3O)OC2C1O (stereo partly drawn) [Compound A4-e, 4″-N,N-bis(2-aminoethyl)apramycin] | 2 (≈ 3.2 µM) | 4 (≈ 6.39 µM) | 4 (≈ 6.39 µM) | 4 (≈ 6.39 µM) | 4 (≈ 6.39 µM) | 2 (≈ 3.2 µM) | 1 (≈ 1.6 µM) | 8 (≈ 12.8 µM) | 16 (≈ 25.6 µM) | 2 (≈ 3.2 µM) | 8 (≈ 12.8 µM) | 2 (≈ 3.2 µM) | 8 (≈ 12.8 µM) | 8 (≈ 12.8 µM) | – | – | – | – | – | – | –
CNC1C(O[C@H]2OC(CO)[C@@H](NC(=O)CCN)[C@H](O)C2O)O[C@H]2CC(N)[C@@H](O[C@@H]3C(N)C[C@@H](N)C(O)[C@H]3O)OC2C1O (stereo partly drawn) [Compound V1-g, 4″-N-(β-alanyl)apramycin] | 2 (≈ 3.28 µM) | 8 (≈ 13.1 µM) | 8 (≈ 13.1 µM) | 4 (≈ 6.55 µM) | 4 (≈ 6.55 µM) | 4 (≈ 6.55 µM) | 1 (≈ 1.64 µM) | 4 (≈ 6.55 µM) | 32 (≈ 52.4 µM) | 1 (≈ 1.64 µM) | 16 (≈ 26.2 µM) | 2 (≈ 3.28 µM) | 8 (≈ 13.1 µM) | 4 (≈ 6.55 µM) | – | – | – | – | – | – | –
CNC1C(OC2OC(CO)C(N)CC2O)OC2CC(N)C(OC3CCC(N)CC3N)OC2C1O (stereo not drawn) [Compound N7, 5,6,3″-trideoxyapramycin] | – | – | – | – | – | – | – | – | – | – | – | – | – | – | 1 (≈ 2.03 µM) | 8 (≈ 16.3 µM) | 8 (≈ 16.3 µM) | 4 (≈ 8.14 µM) | 4 (≈ 8.14 µM) | 2 (≈ 4.07 µM) | minimal inhibitory concentration (MIC) (E. coli JM109/pMW218): 1 µg/mL (≈ 2.03 µM); minimal inhibitory concentration (MIC) (P. aeruginosa MSC01035): 8 µg/mL (≈ 16.3 µM); minimal inhibitory concentration (MIC) (E. faecium ATCC19434): 16 µg/mL (≈ 32.5 µM); minimal inhibitory concentration (MIC) [3]: 1 µg/mL (≈ 2.03 µM); minimal inhibitory concentration (MIC) (S. marcescens TH-0447): 8 µg/mL (≈ 16.3 µM); minimal inhibitory concentration (MIC) (S. aureus RN4220/pMS520): 2 µg/mL (≈ 4.07 µM); minimal inhibitory concentration (MIC) (S. marcescens GN6944): 4 µg/mL (≈ 8.14 µM); minimal inhibitory concentration (MIC) (P. aeruginosa MSC17707): 8 µg/mL (≈ 16.3 µM)
